Broadly, the MIC is the least concentration at which growth counts as inhibited.

Assay [1] concerns C. crescentus (strain CB15N). Briefly: Minimum inhibitory concentration (macrodilution), C. crescentus CB15N. The assay is classed as cell-based. The settings on record: Caulobacter vibrioides. On the procedure: (§1) All cultures were grown for 17 hrs.
Minimum inhibitory concentration for compounds 1, 6, 7, 8, and 9, determined as in Example 3 using the C. crescentus CB15N strain.

The subject of assay [2] is MRSA strain of Staphylococcus aureus. Particulars: normally lethal dose of MRSA; cited from earlier work.
For a further assay, the system named is E. coli. The settings on record: reported in the literature; cited from earlier work.
Assay [3] concerns E. coli ΔtolC. Briefly: Minimum inhibitory concentration (macrodilution), E. coli ΔtolC. Particulars: Escherichia coli.
Protocol: Determination of the minimum inhibitory concentration (MIC): The MIC of the small molecule hits was determined using a macrodilution method. All cultures were grown in M8 medium at 37° C., except for C. crescentus (strain CB15N) which was cultured in PYE media at 30° C. C. crescentus and E. coli cultures were incubated while shaking at 200 rpm. Pathogenic clinical strains were grown in static conditions. All cultures were grown for 17 hrs.
Assay [4] concerns C. crescentus CB15N pMT182 (PxylX-mipZ). Briefly: Cell length microscopy with MipZ overexpression. It is filed as cell-based, Caulobacter crescentus. Particulars: 0.2% xylose induction, FIG. 4. Here is the method: (§2) Optical microscopy and image analysis: A Nikon Eclipse TE2000E inverted microscope with a Perfect Focus system and an encoded z-stage for phase contrast and epifluorescence microscopy was used. To observe the effect of Compound 1 on cell division, freshly grown cells from an overnight culture were treated with the compound. Small aliquots (1-2 μL) of the cells dosed with Compound 1 were mounted on 1% agarose pads for microscopy. To visualize FtsZ localization, MT196 cells (C. crescentus CB15N PvanA-ftsZ-yfp) were induced with vanilate (0.5 mM) for 1 hr prior to imaging. PSICIC, a MATLAB-based script, was used to measure cell lengths (n≧100) for the following strains of C. crescentus: CB15N, CB15N pMT182 (PxylX-mipZ, Cm^R), and CB15N ΔzapA. The CB15N pMT182 strain was treated with 0.2% xylose to induce overexpression of MipZ. For cells that could not be accurately detected by PSICIC, the cell length was manually traced in MetaMorph or ImageJ and the pixel traces were converted to microns. GraphPad InStat was used for statistical analysis of cell length distributions.

Assay [5] relates to C. crescentus CB15N cells. Put plainly: Reversibility of cell division inhibition after wash-out. The assay is classed as cell-based, Caulobacter crescentus. Particulars: pre-incubated with 6 μM for 2.5 hours, then diffused out on agarose pad, FIG. 10. On the procedure: To test whether the inhibitory effect of compound 1 is reversible, the compound was washed out of pre-treated cells and their growth and division monitored using microscopy. A culture of C. crescentus CB15N cells was pre-incubated with 6 μM compound 1 for 2.5 hours at 30° C. A small aliquot of this culture was applied to an agarose pad (2% w/v agarose in PYE media), and the cells were imaged over time while incubating them on the microscope stage at 30° C.

A further assay relates to C. crescentus CB15N. Put plainly: Viability of C. crescentus after exposure to antibiotics (colony counts). The assay is classed as cell-based, Caulobacter crescentus. Particulars: antibiotic at twice its MIC, FIG. 7.
Assay [6] has as its system C. crescentus strain (MT97) that expresses mipZ-yfp. Put plainly: In vivo screen of cell morphology (septation) by microscopy, C. crescentus. It is filed as cell-based, Caulobacter crescentus. The settings on record: 20 μM in agarose pad, FIG. 3. On the procedure: In vivo screen with a Caulobacter crecentus strain that expresses MipZ-YFP: Hits from the in vitro screens were tested for their activity in vivo. A C. crescentus strain (MT97) that expresses mipZ-yfp from the native mipZ promoter was used. An overnight culture of MT97 was diluted to an OD600 of ˜0.1, and the diluted culture was further grown for at least an hour prior to treatment with the compound. Compounds were mixed with a solution of 1% agarose in M2G medium to achieve a final concentration of 20 μM. Cells were inoculated onto the surface of the compound-containing agarose pad (1 μL inoculum per pad), and we observed the cell morphology and localization of MipZ-YFP for a period of 24 hrs. In the time between microscopic observations, the inoculated pads were kept at 30° C. to promote growth.

In assay [7] the test system is FtsB, FtsL, FtsK and FtsI localization in C. crescentus cells. Put plainly: Localization of fluorescently-tagged Fts proteins. Particulars: late division stage cells vs DMSO control, FIG. 8C. The assay is classed as cell-based, Caulobacter crescentus. Here is the method:
Strains of C. crescentus that express fluorescently-tagged Fts proteins (FtsB, FtsL, FtsK, and FtsI) were cultured overnight. The overnight cultures were diluted 10-fold and incubated for an hour at 30° C. prior to compound treatment. Cells were induced with xylose (0.3%) to trigger the expression of fluorescently-tagged Fts proteins. After inducing with xylose for 45 min, cells were mounted on agarose pads and imaged as described in Example 4.
To analyze changes in the localization of Fts proteins, cells in the late division stage were selected for image analysis. At this stage of the cell cycle, cells have a visible constriction at the midcell, and the Fts proteins localize to the constriction site. […] Within the population of cells selected for a visible constriction, cells that have a single fluorescence focus of Fts proteins were counted. […] These cells have clear constrictions at the midcell as shown in brightfield images. In the fluorescence channel, the signal from Venus-FtsI is localized at the septum in the DMSO sample. In contrast, the fluorescence signal is more diffuse throughout the cell body in the sample treated with compound 1. […] The observed decrease in Fts protein localization in the presence of compound 1 was statistically significant when compared to the DMSO solvent control samples.

A further assay relates to Escherichia coli. Briefly: Septation during reproduction, E. coli (FIG. 3). The assay is classed as cell-based.
Another assay deals with Shigella boydii. Briefly: Minimum inhibitory concentration, pathogenic strain Shigella boydii. The assay is classed as cell-based. On the procedure: as §1
The next assay concerns Acinetobacter baumannii. Briefly: Minimum inhibitory concentration, pathogenic strain Acinetobacter baumannii. The assay is classed as cell-based. Here is the method:
as §1

The next assay deals with Vibrio cholerae. Put plainly: Minimum inhibitory concentration, pathogenic strain Vibrio cholerae. The assay is classed as cell-based.
For assay [8], the system named is C. crescentus CB15N ΔzapA. Briefly: Cell length microscopy in ΔzapA strain. It is filed as cell-based, Caulobacter crescentus. Particulars: FIGS. 5 and 6. Here is the method:
as §2

In assay [9] the test system is E. coli ΔtolC. Put plainly: Cephalexin-induced cell lysis and filamentation (optical density). The settings on record: 10 μg/mL cephalexin plus compound 1 (0 to 12.5 μM), FIG. 9C. The assay is classed as cell-based, Escherichia coli.
[10] abbreviates: C. crescentus CB15N strain, determined as in Example 3.

≈ marks a conversion by molar mass, not a printed value.

As for `COc1ccc2ccccc2c1/C=N/NC(=O)CCn1c(C(F)(F)F)nc2ccccc21` [Compound 7], the MIC in assay [1] (setting [10]) was over 20 µM.
On to `NC(=O)c1c(F)ccc(OCc2nc3cc(Cl)cnc3s2)c1F` [PC190723], for which the “protection of mice from lethal infection” value in [2] was “protect mice from a normally lethal dose of the MRSA strain of Staphylococcus aureus”. In addition, the minimal inhibitory concentration (MIC) in the assay with E. coli was over 180 µM.
`Cc1nc2ccccc2n1CCC(=O)N/N=C/c1c(O)ccc2ccccc12` [Compound 1]: the MIC against E. coli ΔtolC [3] worked out at 13.5 µM (≈ 5.03 µg/mL); in [1] (C. crescentus) it was 5 µM (≈ 1.86 µg/mL); in assay [1] (setting [10]), 5 µM (≈ 1.86 µg/mL); in the assay on Shigella boydii it was 50 µM (≈ 18.6 µg/mL); against Acinetobacter baumannii, 25 µM (≈ 9.31 µg/mL); with Vibrio cholerae it was 0.4 µM (≈ 0.149 µg/mL). Besides, the “effect on cell elongation caused by MipZ overexpression” value in assay [4] is “rescues cell elongation caused by MipZ overexpression”. The “reversibility of inhibitory effect on cell division” value in assay [5] is “reversible”. For the same molecule, the “colony forming units over time” value in the assay with C. crescentus CB15N is “did not significantly alter the colony forming units over time”. For the same molecule, in assay [6], the “effect on septation / cell morphology” value is reported as “inhibits septation during reproduction in C. crescentus”. Besides, in assay [7], the “population of cells with midcell localization of Fts proteins” value is on record as “decreased the population of cells with a midcell localization of Fts proteins”. Moreover, the effect on septation entry in the assay on Escherichia coli is reported as “inhibits septation during reproduction”. In addition, the “effect on cell length in ΔzapA strain” value in assay [8] is “restores cell lengths to near normal lengths”. Besides, in the assay with E. coli ΔtolC [9], the “cell filamentation and lysis on co-treatment with cephalexin” value was “elongated slowly and did not undergo cell lysis”.
`COc1ccc2ccccc2c1/C=N/NC(=O)CCn1c(C)nc2ccccc21` [Compound 8] displayed a minimum inhibitory concentration (MIC) in assay [1] (setting [10]) of over 20 µM.
Still for that read-out and setting: under `O=C(CCn1c(C(F)(F)F)nc2ccccc21)N/N=C/c1c(O)ccc2ccccc12` [Compound 6] stands 7.5 µM (≈ 3.2 µg/mL).
Same read-out and setting: under `Cc1nc2ccccc2n1CCC(=O)N/N=C/c1ccccc1O` [Compound 9] stands 15 µM (≈ 4.84 µg/mL).

The values above are taken from patent US9282738B2, “Antimicrobial compositions and methods of use thereof” (WISCONSIN ALUMNI RESEARCH FOUNDATION, priority 2011, dated 2016).
